Patent US4500544A, “Ascochlorin derivatives, and pharmaceutical composition containing the same” (Chugai Seiyaku Kabushiki Kaisha, priority 1981, dated 1985)

Columns and labels:
[1] = system: streptozotocin diabetic ddY mice; assay: streptozotocin-diabetic mice, diet with 0.1% compound (Example 21); format: in vivo, ddY male mice
Description: Five-week-old ddY male mice were injected intraperitoneally with 130 mg/kg of streptozotocin. […] Each group was allowed to take the diet and drink water freely. One week later, the levels of glucose, insulin, free fatty acid in serum and glycogen in liver were measured.

Ehrlich ascites tumor = assay: life span of mice with Ehrlich ascites tumor (Example 22); format: in vivo, ddY male mice; conditions: 2 mg i.p. once a day for 7 days; for Days survived: n=8, control 15.5 ± 2.12; for T/0 (%): control 100
Description: 10^6 Cells of Ehrlich ascites tumor were transplanted in five-week-old ddY male mice and from the 24th hour onward, they were injected intraperitoneally the compounds indicated in Table 4 of the present invention once a day for 7 consecutive days. Each injection contained 2 mg of the test compounds. The efficacy of the compounds is indicated in Table 4 in terms of their life span.

[2] = plasma glucose and cholesterol in normal mice fed the compounds (Example 19); format: in vivo, ddY male mice; conditions: 0.1% in diet, one week, n=10; for total cholesterol in plasma: control 135.9 ± 4.8; for plasma glucose: control 271.6 ± 0.4
Description: Five-week-old ddY male mice (n=10) were given for one week a diet (CE-2 from Nippon Crea Co., Ltd.) containing 0.1% of the sample compounds of the present invention indicated in Table 1. Blood was then withdrawn from the heart and the glucose and cholesterol levels in plasma were measured.

[3] = system: Hereditary obese diabetic mice C 57BL/Ksj (db^+ /db^+); assay: hereditary obese diabetic mice, diet with 0.05% compound, intake and urine (Example 24); format: in vivo, mouse
Description: Hereditary obese diabetic mice C 57BL/Ksj (db^+ /db^+), 12 weeks old, were fed commercial pellet diet (CE-2 from Nippon Crea Co., Ltd.) for a week and they were treated with CE-2 pellet containing 0.05% of 4-O-nicotinoylascochlorin for a week. The daily amounts of the diet intake, drinking water, urine volume and urine glucose excreted were measured before and during the treatment.

[4] = system: streptozotocin diabetic ddY mice; assay: streptozotocin-diabetic mice, plasma glucose and lipid (Example 26); format: in vivo, ddY male mice
Description: Five-week-old ddY male mice […] were injected intraperitoneally 150 mg/kg of streptozotocin, and after 24 hours onward, they were given for one week a diet (CE-2 from Nippon Crea Co., Ltd.) containing 0.05% of 4-O-nicotinoyl ascochlorin. A control group was given only CE-2. On the 7th day, the animals were sacrificed and the levels of glucose and lipid in their plasma were measured.

[5] = system: hepatic lipogenesis in streptozotocin-diabetic mice; assay: hepatic lipogenesis in streptozotocin-diabetic mice; format: in vivo; conditions: oral, a week; untreated diabetic controls one half of normal
Description: Potentiation of insulin action by the compounds of the present invention is corroborated by restoration of hepatic lipogenesis in streptozotocin-diabetic mice. Streptozotocin diabetic mice greatly deteriolate hepatic lipogenesis due to insulin deficiency.

[6] = system: Hereditary obese diabetic mice C57BL/Ksj (db^+ /db^+); assay: hereditary obese diabetic mice, plasma glucose and lipid (Example 27); format: in vivo, mouse
Description: Hereditary obese diabetic mice C57BL/Ksj (db^+ /db^+) were given for one week a diet (CE-2 from Nippon Crea Co., Ltd.) containing 0.05% of 4-O-nicotinoyl ascochlorin. A control group of the same age was given only CE-2. One week later, the animals were sacrificed and the levels of plasma glucose and lipid were measured.

[7] = serum lipid and glucose in normal mice fed the compounds (Example 25); format: in vivo, ddY male mice; conditions: for lipid level in serum (in words) / free fatty acid in serum / neutral fat in serum / total cholesterol in serum / serum glucose: 0.05% in diet, one week; for free fatty acid in serum / neutral fat in serum / total cholesterol in serum / serum glucose: n=8; for free fatty acid in serum: control 25.3 ± 1.62; for neutral fat in serum: control 134.7 ± 8.6; for total cholesterol in serum: control 135.9 ± 4.8; for serum glucose: control 293.0 ± 13.3; for free fatty acid in serum, change / neutral fat in serum, change / serum glucose, change / total cholesterol in serum, change: vs control
Description: Five-week-old ddY male mice were given for one week a diet (CE-2 from Nippon Crea Co., Ltd.) containing 0.05% of the compounds of the present invention indicated in Table 7. On the 7th day, the mice were sacrificed and the levels of lipid and glucose in their serum were measured.

Compound: CCOC(=O)COc1c(Cl)c(C)c(C=O)c(O)c1C/C=C(C)/C=C/C1(C)C(C)CCC(=O)C1C (stereo not shown) [Example 1, 4-O-ethoxycarbonylmethylated ascochlorin]
- serum immunoreactive insulin ([1]; 0.1% in diet, one week, n=10, control 42.67 ± 4.61): 26.60 ± 2.78 μU/ml
- serum free fatty acid ([1]; 0.1% in diet, one week, n=10, control 44.29 ± 2.05): 30.44 ± 1.22 mg/dL
- serum glucose ([1]; 0.1% in diet, one week, n=10, control 337.7 ± 23.0): 250.6 ± 26.2 mg/dL
- body weight after feeding ([1]; 0.1% in diet, one week, before feeding 25.5 ± 0.4, control after feeding 28.0 ± 0.5, ns): 27.0 ± 0.6 g/mouse
- serum free fatty acid, change ([1]; vs control): -31.3%
- serum glucose, change ([1]; vs control): -25.8%
- serum immunoreactive insulin, change ([1]; vs control): -37.7%
- Days survived (Ehrlich ascites tumor): 19.3 ± 5.77 days
- T/0 (%) (Ehrlich ascites tumor): 125%
- total cholesterol in plasma [2]: 105.7 ± 3.0 mg/dL
- plasma glucose [2]: 208.3 ± 13.1 mg/dL

Compound: CCOC(=O)C(C)Oc1c(Cl)c(C)c(C=O)c(O)c1C/C=C(C)/C=C/C1(C)C(C)CCC(=O)C1C (stereo not shown) [Example 5, 4-O-(1-ethoxycarbonylethyl) ester of ascochlorin]
- Days survived (Ehrlich ascites tumor): > 19.1 ± 1.97 days
- T/0 (%) (Ehrlich ascites tumor): 123%
- total cholesterol in plasma [2]: 109.7 ± 5.0 mg/dL
- plasma glucose [2]: 205.7 ± 8.2 mg/dL

Compound: CCOC(=O)CCCOc1c(Cl)c(C)c(C=O)c(O)c1C/C=C(C)/C=C/C1(C)C(C)CCC(=O)C1C (stereo not shown) [Example 8, 4-O-(3-ethoxycarbonyl)propyl ester of ascochlorin]
- total cholesterol in plasma [2]: 115.0 ± 6.6 mg/dL
- plasma glucose [2]: 255.5 ± 17.0 mg/dL

Compound: CC(/C=C/C1(C)C(C)CCC(=O)C1C)=C\Cc1c(O)c(C=O)c(C)c(Cl)c1OC(C)C(=O)O (stereo not shown) [Example 9]
- Days survived (Ehrlich ascites tumor): > 28.8 ± 3.54 days
- T/0 (%) (Ehrlich ascites tumor): 186%
- total cholesterol in plasma [2]: 106.7 ± 5.5 mg/dL
- plasma glucose [2]: 210.0 ± 10.7 mg/dL

Compound: CC(/C=C/C1(C)C(C)CCC(=O)C1C)=C\Cc1c(O)c(C=O)c(C)c(Cl)c1OCCCC(=O)O (stereo not shown) [Example 10]
- Days survived (Ehrlich ascites tumor): 19.3 ± 10.12 days
- T/0 (%) (Ehrlich ascites tumor): 125%
- total cholesterol in plasma [2]: 115.7 ± 5.0 mg/dL
- plasma glucose [2]: 220.1 ± 6.8 mg/dL

Compound: CC(/C=C/C1(C)C(C)CCC(=O)C1C)=C\Cc1c(O)c(C=O)c(C)c(Cl)c1OC(=O)c1cccnc1 (stereo not shown) [Example 11, 4-O-nicotinoyl ascochlorin]
- polydipsia, polyuria and urine glucose excretion (in words) ([3]; 0.05% in diet, one week): improved polydipsis and polyurea and inhibited excretion of urine gluclose
- urine volume ([3]; 0.05% in diet, one week, n=5, control period 8.60 ± 0.35): 5.20 ± 0.36 ml/mouse/day
- drinking water ([3]; 0.05% in diet, one week, n=5, control period 14.55 ± 0.33): 11.16 ± 0.52 ml/mouse/day
- urine glucose concentration ([3]; 0.05% in diet, one week, n=5, control period 130.6 ± 5.7): 106.3 ± 2.9 mg/mL
- urine glucose ([3]; 0.05% in diet, one week, n=5, control period 1129 ± 96): 554 ± 43 mg/mouse/day
- diet intake ([3]; 0.05% in diet, treatment period one week, n=5, control period 4.85 ± 0.06, NS): 4.26 ± 0.39 g/mouse/day
- drinking water, change ([3]; vs control period): -23.30%
- urine glucose concentration, change ([3]; vs control period): -18.6%
- urine glucose, change ([3]; vs control period): -50.9%
- urine volume, change ([3]; vs control period): -39.5%
- blood glucose and plasma triglyceride (in words) ([4]; 0.05% in diet, one week): could inhibit significantly the increase in the levels of blood glucose and triglyceride in plasma
- free aliphatic acid in plasma ([4]; 0.05% in diet, one week, control 22.4 ± 1.4): 20.5 ± 1.2 mg/dL
- plasma glucose ([4]; 0.05% in diet, one week, control 453.6 ± 38.0): 351.3 ± 23.0 mg/dL
- free aliphatic acid in plasma, change ([4]; vs control): -8%
- plasma glucose, change ([4]; vs control): -23%
- incorporation of acetate into hepatic total fatty acid and triglyceride [5]: restored to normal control levels
- plasma lipid and glucose levels (in words) ([6]; 0.05% in diet, one week): could reduce significantly the high plasma lipid and glucose levels
- plasma free fatty acid ([6]; 0.05% in diet, one week, n=7, control 27.7 ± 1.8): 26.1 ± 1.4 mg/dL
- plasma triglyceride ([6]; 0.05% in diet, one week, n=7, control 170.7 ± 16.3): 115.5 ± 14.9 mg/dL
- immunoreactive insulin in plasma ([6]; 0.05% in diet, one week, n=7, control 236.6 ± 91.0): 257.3 ± 91.3 μU/ml
- plasma glucose ([6]; 0.05% in diet, one week, n=7, control 453.6 ± 38.0): 351.3 ± 23.0 mg/dL
- plasma glucose, change ([6]; vs control): -23%
- plasma triglyceride, change ([6]; vs control): -32.3%
- lipid level in serum (in words) [7]: could also reduce the lipid level in serum
- free fatty acid in serum [7]: 21.2 ± 0.62 mg/dL
- neutral fat in serum [7]: 102.0 ± 10.5 mg/dL
- total cholesterol in serum [7]: 106.7 ± 5.5 mg/dL
- serum glucose [7]: 228.0 ± 16.8 mg/dL
- free fatty acid in serum, change [7]: -16.3%
- neutral fat in serum, change [7]: -24.3%
- serum glucose, change [7]: -22.2%
- total cholesterol in serum, change [7]: -21.5%

Compound: CCN(CC)C(=O)Oc1c(Cl)c(C)c(C=O)c(O)c1C/C=C(C)/C=C/C1(C)C(C)CCC(=O)C1C (stereo not shown) [Example 13, 4-O--diethylcarbamoyl ascochlorin]
- free fatty acid in serum [7]: 26.4 ± 0.58 mg/dL
- neutral fat in serum [7]: 110.2 ± 16.4 mg/dL
- total cholesterol in serum [7]: 121.2 ± 5.0 mg/dL
- serum glucose [7]: 215.2 ± 5.7 mg/dL
- free fatty acid in serum, change [7]: +4.3%
- neutral fat in serum, change [7]: -18.2%
- serum glucose, change [7]: -26.6%
- total cholesterol in serum, change [7]: -10.8%

Compound: CC(/C=C/C1(C)C(C)CCC(=O)C1C)=C\Cc1c(O)c(C=O)c(C)c(Cl)c1OC(=O)COc1ccc(Cl)cc1 (stereo not shown) [Example 14, 4-O-(p-chlorophenoxy)acetyl ascochlorin]
- lipid level in serum (in words) [7]: could also reduce the lipid level in serum
- free fatty acid in serum [7]: 24.9 ± 0.48 mg/dL
- neutral fat in serum [7]: 99.4 ± 9.4 mg/dL
- total cholesterol in serum [7]: 115.6 ± 9.8 mg/dL
- serum glucose [7]: 209 ± 8.9 mg/dL
- free fatty acid in serum, change [7]: -1.6%
- neutral fat in serum, change [7]: -26.2%
- serum glucose, change [7]: -28.7%
- total cholesterol in serum, change [7]: -14.8%

Compound: COc1ccc(C(=O)Oc2c(Cl)c(C)c(C=O)c(O)c2C/C=C(C)/C=C/C2(C)C(C)CCC(=O)C2C)cc1 (stereo not shown) [Example 15, 4-O--(p-methoxybenzoyl) ascochlorin]
- free fatty acid in serum [7]: 25.2 ± 1.89 mg/dL
- neutral fat in serum [7]: 141.4 ± 21.3 mg/dL
- total cholesterol in serum [7]: 137.9 ± 4.1 mg/dL
- serum glucose [7]: 199.3 ± 8.6 mg/dL
- free fatty acid in serum, change [7]: -0.4%
- neutral fat in serum, change [7]: +4.9%
- serum glucose, change [7]: -31.9%
- total cholesterol in serum, change [7]: +1.4%

Compound: COC(=O)c1ccc(C(=O)Oc2c(Cl)c(C)c(C=O)c(O)c2C/C=C(C)/C=C/C2(C)C(C)CCC(=O)C2C)cc1 (stereo not shown) [Example 16, 4-O--(p-methoxycarbonyl)-benzoyl ascochlorin]
- free fatty acid in serum [7]: 21.8 ± 0.69 mg/dL
- neutral fat in serum [7]: 136.3 ± 8.1 mg/dL
- total cholesterol in serum [7]: 129.6 ± 3.9 mg/dL
- serum glucose [7]: 229.9 ± 17.0 mg/dL
- free fatty acid in serum, change [7]: -15.9%
- neutral fat in serum, change [7]: +1.2%
- serum glucose, change [7]: -21.5%
- total cholesterol in serum, change [7]: -4.6%

Compound: CC(/C=C/C1(C)C(C)CCC(=O)C1C)=C\Cc1c(O)c(C=O)c(C)c(Cl)c1OC(=O)c1ccncc1 (stereo not shown) [Example 17, 4-O-isonicotinoyl ascochlorin]
- lipid level in serum (in words) [7]: could also reduce the lipid level in serum
- free fatty acid in serum [7]: 20.3 ± 0.77 mg/dL
- neutral fat in serum [7]: 116.1 ± 13.8 mg/dL
- total cholesterol in serum [7]: 113.5 ± 7.8 mg/dL
- serum glucose [7]: 191.6 ± 13.2 mg/dL
- free fatty acid in serum, change [7]: -19.8%
- serum glucose, change [7]: -34.6%
- total cholesterol in serum, change [7]: -16.5%

Compound: CC(/C=C/C1(C)C(C)CCC(=O)C1C)=C\Cc1c(O)c(C=O)c(C)c(Cl)c1OC(=O)c1ccccn1 (stereo not shown) [Example 18, 4-O--picolinyl ascochlorin]
- free fatty acid in serum [7]: 23.5 ± 3.13 mg/dL
- neutral fat in serum [7]: 117.6 ± 6.8 mg/dL
- total cholesterol in serum [7]: 138.4 ± 3.1 mg/dL
- serum glucose [7]: 247.7 ± 9.0 mg/dL
- free fatty acid in serum, change [7]: -7.1%
- neutral fat in serum, change [7]: -12.7%
- serum glucose, change [7]: -15.5%
- total cholesterol in serum, change [7]: +1.8%
